According to patent US20080081826A1, “SYSTEM FOR EFFECTING WEIGHT LOSS” (priority 2006, published 2008):

How the values were obtained:
[1] = test system: gastric and pancreatic lipase; settings: literature; cited from earlier work
[2] = Clinical weight loss studies (historical) in overweight or obese patients, 12 or 24 weeks; type: in vivo, human patients; settings: no meal replacement
Procedure: To conduct the studies, patients who were diagnosed as overweight or obese were chosen for clinical trials to assess weight loss as a function of prescribed meal replacements or a weight loss agent (sibutramine). Co-administration of both a weight loss agent and meal replacement was also tested.
All patients received lifestyle modification training of either a moderate (data Groups 1-9, 11, and 12) or intensive (data Group 10) character which included a patient's participation in record keeping, professional consultation, and exercise in addition to the dietary protocol. Patients placed on a “Moderate” lifestyle management program were given a diet sheet with instructions for a defined intake of daily calories ranging from 800-1600 kcal, or a 600 kcal deficit diet, with or without exercise and routine visits with the Primary Care Provider to reinforce diet and behavior modification, but relying primarily on patient self-monitoring. Patients placed on an “Intensive” lifestyle management program were given a diet sheet with a defined intake of daily calories ranging from 800-1600 kcal, or a 600 kcal deficit diet, with meals recorded in a food diary, and were provided with ongoing diet counseling and caloric adjustment according to weight loss “Intensive” patients were also given defined minimal weekly requirements for exercise and instructed to record their activities in an exercise diary that was then collected and reviewed by the Primary Care Provider. The Intensive program also included routine visits throughout the course of the study with a Dietitian and the Primary Care Provider in order to reinforce diet and behavior modification.
Patients in some groups (see Table 2, data Groups 2, 11, and 12) utilized meal replacement formulations. These individuals were given a diet sheet with a defined intake of daily calories ranging from 800-1600 kcal, or a 600 kcal deficit diet, with a meal replacement formulation taken once or twice daily instead of a food meal, and routine visits with a Primary Care Provider to reinforce diet and behavior modification, but relying primarily on patient self-monitoring.
The remainder of the patients (see Table 2, data Groups 3-11) also received daily doses of sibutramine at 10 mg/day (data Groups 3-7 and 11) or 15 mg/day (data Groups 8, 9, and 12). Individuals in data Groups 11 and 12 were given a diet sheet with a defined intake of daily calories ranging from 800-1600 kcal, or a 600 kcal deficit diet, with a meal replacement formulation (SlimFast®) taken once or twice daily instead of a food meal where applicable (see Table 2), and routine visits with a Primary Care Provider to reinforce diet and behavior modification, but relying primarily on patient self-monitoring. Patients in data Group 10 were placed on a 10 mg/day sibutramine and “Intensive” life style management regimen with no meal replacement.
In each of the studies, patients were monitored for weight loss over a 12- or 24-week period. The data groups ranged in size from 17 to 592 patients, and were placed on either a conventional diet with moderate lifestyle management program (data Group 1), or a diet including a meal replacement component including substitution of either one or two meals per day with a meal replacement formulation, as part of a moderate lifestyle management (data Group 2), or a conventional diet plus one daily dose of sibutramine (10 mg) with a moderate or intensive lifestyle management (data Groups 3-7 and 10), a conventional diet plus one daily dose of sibutramine (15 mg) with moderate lifestyle management (data Groups 8 and 9), and finally, a diet with one or two meal replacements (SlimFast®) plus one daily dose of sibutramine (10 mg) and moderate lifestyle management (data Group 11) or a diet with one or two meal replacements (SlimFast®) plus one daily dose of sibutramine (10 mg for 12 weeks followed by 15 mg for 12 weeks) (data Group 12).
All subjects received moderate or intensive lifestyle management training. […]

[3] = data Groups 8 and 9: 15 mg sibutramine + moderate lifestyle management, 24 weeks

SMILES	fraction of the fat contained in a meal whose absorption is blocked [1]	Mean Weight Change (kg) (LOCF*) ([2]; data Group 3: sibutramine 10 mg/day, moderate lifestyle management, 12 weeks)	weight loss (lower end of range, sibutramine only) ([2]; data Group 3 as worded in text: 10 mg sibutramine/day + moderate lifestyle management, latest observation to week 12) [kg]	Mean Weight Change (kg) (LOCF*) ([2]; data Group 4: sibutramine 10 mg/day, moderate lifestyle management, 12 weeks)	mean weight loss ([2]; data Group 5: 10 mg/day sibutramine + moderate lifestyle management, latest observation to week 12) [kg]	Mean Weight Change (kg) (LOCF*) ([2]; data Group 5: sibutramine 10 mg/day, moderate lifestyle management, 12 weeks)	Mean Weight Change (kg) (LOCF*) ([2]; data Group 6: sibutramine 10 mg/day, moderate lifestyle management, 12 weeks)	Mean Weight Change (kg) (LOCF*) ([2]; data Group 7: sibutramine 10 mg/day, moderate lifestyle management, 12 weeks)	Mean Weight Change (kg) (LOCF*) ([2]; data Group 8: sibutramine 15 mg/day, moderate lifestyle management, 24 weeks)	Mean Weight Change (kg) (LOCF*) ([2]; data Group 9: sibutramine 15 mg/day, moderate lifestyle management, 24 weeks)	weight loss (upper end of range, sibutramine only) ([2]; data Group 10: 10 mg sibutramine/day + intensive lifestyle management, latest observation to week 12) [kg]	Mean Weight Change (kg) (LOCF*) ([2]; data Group 10: sibutramine 10 mg/day, intensive lifestyle management, 12 weeks)	overall average weight loss of all groups ([2]; data Groups 3-7: 10 mg/day sibutramine, moderate lifestyle management, 12 weeks) [kg]	average weight loss [2, 3] [kg]	improvement of average weight loss by the higher 15 mg dose [2, 3]
CCCCCCCCCCC[C@H](C[C@H]1OC(=O)[C@H]1CCCCCC)OC(=O)[C@@H](CC(C)C)NC=O [orlistat, (2S,3S,5S)-5-[(S)-2-formamido-4-methylvaleryloxy]-2-hexyl-3-hydroxyhexadecanoic acid lactone]	about one third														
CC(C)CC(N(C)C)C1(c2ccc(Cl)cc2)CCC1 (stereo not drawn) [sibutramine, N,N-dimethyl-1-[1-(4-chlorophenyl)cyclobutyl]-3-methylbutylamine]		-3.9	3.7	-6.2	3.7	-3.7	-5	-4.2	-6.4	-5.6	8.4	-8.4	4.6	6.0	approximately 25%
